Test results reported in ChEMBL document CHEMBL1201862, “PubChem BioAssay data set” (2004).
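Briefly, cells in 96-well plates were exposed to five compound concentrations for 48 h, and endpoints were estimated by linear interpolation. GI50 is the concentration that inhibits growth by half.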 Calls of active or inactive are those of the source. Rule as the data show it: active = GI50 up to about 1.1 µM and inactive = higher.

Assays:
Assay in all cases: DTP human tumour cell line panel, 48 h
MDA-N = system: MDA-N
TK-10 = system: TK-10
OVCAR-3 = system: OVCAR-3
786-0 = system: 786-0
K562 = system: K562
NCI/ADR-RES = system: NCI/ADR-RES
DU-145 = system: DU-145
Hs-578T = system: Hs-578T
MDA-MB-435 = system: MDA-MB-435
SF-539 = system: SF-539
T47D = system: T47D
EKVX = system: EKVX
UO-31 = system: UO-31
UACC-62 = system: UACC-62
COLO 205 = system: COLO 205
RPMI-8226 = system: RPMI-8226
NCI-H460 = system: NCI-H460
CAKI-1 = system: CAKI-1
CCRF-CEM = system: CCRF-CEM
SNB-75 = system: SNB-75

Measured: GI50

NC(C(=O)O)c1cc(O)no1 (stereo not given)
inactive: MDA-N > 100 µM | TK-10 > 100 µM | OVCAR-3 > 100 µM | 786-0 > 100 µM | K562 > 100 µM | NCI/ADR-RES > 100 µM | DU-145 > 100 µM | Hs-578T > 100 µM | MDA-MB-435 > 100 µM | SF-539 > 100 µM | T47D > 100 µM | EKVX > 100 µM | UO-31 > 100 µM | UACC-62 > 100 µM | COLO 205 > 100 µM | RPMI-8226 > 100 µM | NCI-H460 > 100 µM | CAKI-1 > 100 µM | CCRF-CEM > 100 µM | SNB-75 > 100 µM

O=C1NC(Nc2ccccc2Cl)=N/C1=C\c1c(Cl)cccc1Cl
inactive: MDA-N 16.5 µM | TK-10 30.9 µM | OVCAR-3 27 µM | 786-0 33.4 µM | K562 17.1 µM | NCI/ADR-RES 23.2 µM | DU-145 37.2 µM | Hs-578T 28.8 µM | MDA-MB-435 11 µM | SF-539 51.5 µM | T47D 28.6 µM | EKVX 31 µM | UO-31 20.7 µM | UACC-62 32.1 µM | COLO 205 27.7 µM | RPMI-8226 20.6 µM | NCI-H460 24.9 µM | CAKI-1 27.8 µM | CCRF-CEM 34.4 µM | SNB-75 24.7 µM

OC1(c2ccccc2)C2CC=CC2C1(c1ccccc1)c1ccccc1 (stereo not given)
inactive: MDA-N 25 µM | TK-10 29.6 µM | OVCAR-3 30.8 µM | 786-0 61.7 µM | K562 35.6 µM | NCI/ADR-RES 44.3 µM | DU-145 61.7 µM | Hs-578T 38.3 µM | MDA-MB-435 20.7 µM | SF-539 77.1 µM | T47D 23.1 µM | EKVX 20.5 µM | UO-31 31.1 µM | UACC-62 23.9 µM | COLO 205 18.4 µM | RPMI-8226 25.6 µM | NCI-H460 27 µM | CAKI-1 17.1 µM | CCRF-CEM 27.8 µM | SNB-75 34.1 µM

COP(=O)(OC)C12CCOCCN1c1ccccc1C2=O (stereo not given)
inactive: MDA-N > 100 µM | TK-10 > 100 µM | OVCAR-3 > 100 µM | 786-0 > 100 µM | NCI/ADR-RES > 100 µM | DU-145 > 100 µM | Hs-578T > 100 µM | MDA-MB-435 > 100 µM | SF-539 > 100 µM | T47D > 100 µM | EKVX > 100 µM | UO-31 > 100 µM | UACC-62 > 100 µM | COLO 205 > 100 µM | RPMI-8226 > 100 µM | NCI-H460 > 100 µM | CAKI-1 > 100 µM | CCRF-CEM > 100 µM | SNB-75 > 100 µM

Nc1nc(N)c2cc(-c3cc4ccccc4[nH]3)ccc2n1
inactive: MDA-N 19.8 µM | TK-10 17.7 µM | OVCAR-3 35.6 µM | 786-0 22.5 µM | NCI/ADR-RES 30.3 µM | DU-145 21.3 µM | Hs-578T 32.1 µM | MDA-MB-435 18.5 µM | SF-539 19.5 µM | T47D 3.48 µM | EKVX 29 µM | UO-31 15.7 µM | UACC-62 17.4 µM | COLO 205 10.3 µM | RPMI-8226 14.3 µM | NCI-H460 19.2 µM | CAKI-1 27.4 µM | CCRF-CEM 35.2 µM | SNB-75 32.4 µM

CCOC(=O)NC(NC1=NCCS1)(C(=O)OCC)C(F)(F)F (stereo not given)
inactive: MDA-N > 100 µM | TK-10 > 100 µM | OVCAR-3 > 100 µM | 786-0 > 100 µM | K562 > 100 µM | NCI/ADR-RES > 100 µM | DU-145 > 100 µM | Hs-578T > 100 µM | MDA-MB-435 > 100 µM | SF-539 > 100 µM | T47D > 100 µM | EKVX > 100 µM | UO-31 > 100 µM | COLO 205 > 100 µM | RPMI-8226 > 100 µM | NCI-H460 > 100 µM | CAKI-1 > 100 µM | CCRF-CEM > 100 µM | SNB-75 > 100 µM

COC(=O)c1ccccc1CC1Cc2cc3c(cc2C1)CCC3
inactive: MDA-N 47.8 µM | TK-10 > 100 µM | OVCAR-3 32.7 µM | 786-0 36.5 µM | K562 23 µM | NCI/ADR-RES > 100 µM | DU-145 40.5 µM | Hs-578T 45.8 µM | MDA-MB-435 29.4 µM | SF-539 54.2 µM | T47D 50.9 µM | EKVX 45.5 µM | UO-31 39.4 µM | COLO 205 23.8 µM | RPMI-8226 17.3 µM | NCI-H460 48.2 µM | CAKI-1 37.9 µM | CCRF-CEM 20.4 µM | SNB-75 26.7 µM

Nc1ncc2c(n1)-c1ccccc1OC2N1CCCCC1 (stereo not given)
inactive: MDA-N > 100 µM | TK-10 > 100 µM | OVCAR-3 > 100 µM | 786-0 > 100 µM | NCI/ADR-RES > 100 µM | DU-145 > 100 µM | Hs-578T > 100 µM | MDA-MB-435 > 100 µM | SF-539 > 100 µM | T47D > 100 µM | EKVX 95.1 µM | UO-31 > 100 µM | UACC-62 > 100 µM | COLO 205 > 100 µM | RPMI-8226 > 100 µM | NCI-H460 > 100 µM | CAKI-1 > 100 µM | CCRF-CEM > 100 µM | SNB-75 > 100 µM
